Data taken from patent US20030114482A1, “Use of retinoid receptor antagonists or agonists in the treatment of cartilage and bone pathologies” (priority 1999, published 2003).
Each block holds one compound with its values, some of them ahead of it.

Key:
[1] = test system: RARE/β-galactosidase reporter construct in F9 teratocarcinoma cell line; assay: F9 teratocarcinoma RARE/β-galactosidase reporter bioassay; type: cell-based
Description: The β-gal assay consists of an F9 teratocarcinoma cell line stably transfected with a reporter construct which contains a 64 bp retinoic acid-response element (RARE) from the promoter region of the human RARβ gene (Ellis et al., Nature 343, 377-381 (1990)) placed immediately upstream of the E. coli lacZ gene. […] Cells were maintained on gelatin-coated dishes in modified L15 CO2 tissue culture medium (Specialty Media, Lavallette, N.J.) supplemented with 20% fetal calf serum and 0.8 mg/ml G418 (complete medium), and were used when 80-90% confluent.
To prepare tissue extracts, tissues were surgically isolated from Day 10 chick embryos and included. The metaphyseal-diaphyseal portion of cartilaginous humerus and tibia from which adherent perichondral tissues were carefully removed, liver, brain, gizzard and heart. During isolation, all tissues were kept in saline on ice under yellow safety light conditions to protect the retinoids. […]
Briefly, cultures were fixed with 0.1% glutaraldehyde in 0.1 M phosphate buffer pH 7.0 for 15 min at room temperature. […] After rinsing again, cultures were extracted with 0.2 ml of DMSO and absorbance of the extracted material was determined at 655 nm using a Perkin-Elmer spectrophotometer. […]

[2] = target: T1, RARγ (Homo sapiens, UniProt P13631); conditions: cited from earlier work
T1 sequence (P13631 1-454): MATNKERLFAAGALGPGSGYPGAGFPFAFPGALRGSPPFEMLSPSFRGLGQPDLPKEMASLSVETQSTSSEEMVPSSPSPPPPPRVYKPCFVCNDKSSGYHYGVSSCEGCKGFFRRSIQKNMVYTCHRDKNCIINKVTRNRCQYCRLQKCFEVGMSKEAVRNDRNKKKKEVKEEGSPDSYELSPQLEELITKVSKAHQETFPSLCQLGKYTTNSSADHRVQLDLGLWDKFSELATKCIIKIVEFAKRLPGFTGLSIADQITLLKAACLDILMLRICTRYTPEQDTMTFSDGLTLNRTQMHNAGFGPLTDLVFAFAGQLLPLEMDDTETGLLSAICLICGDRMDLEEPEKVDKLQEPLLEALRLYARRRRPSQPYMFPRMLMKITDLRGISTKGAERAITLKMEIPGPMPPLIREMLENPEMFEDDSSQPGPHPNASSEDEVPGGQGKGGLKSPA

[3] = test system: RARa, β and γ; conditions: cited from earlier work
[4] = target: T1, RARγ; assay: RAR antagonism, IC50 for RARγ (literature); type: biochemical
[5] = test system: humerus development (chondrocyte maturation, endochondral ossification); assay: Antagonist-filled bead implantation in chick embryo wing bud, humerus development; type: in vivo
Description: This procedure was carried out as described previously (Noji et al., Acta Histochem. Cytochem. 23, 353-366 (1990); Koyama et al., Dev. Dynam. 203, 152-162 (1995)). Briefly, chick embryos or embryo parts were fixed with 4% paraformaldehyde for 4 hr or overnight, embedded in paraffin and sectioned. The 5 μm thick sections were pretreated with 1 μg/ml proteinase K (Sigma, St. Louis, Mo.) in 50 mM Tris, 5 mM EDTA, pH 7.5 at room temperature for 1 min, immediately postfixed in 4% paraformaldehyde buffer for 10 min, and then washed twice in PBS containing 2 mg/ml glycine for 10 min/wash. Sections were treated for 15 min with a freshly prepared solution of 0.25% acetic anhydride in triethanolamine buffer. Sections were hybridized with ^35S-labeled antisense or sense chick cDNA riboprobes (approximately 1×10^6 DPM/section) at 50° C. for 16 hr. After hybridization, slides were washed three times with 2×SSC containing 50% formamide at 50° C. for 20 min/wash, treated with 20 μg/ml RNaseA for 30 min at 37° C., and finally washed three times with 0.1×SSC at 50° C. for 10 min/wash. Sections were coated with Kodak NTB3 emulsion diluted 1:1 with water, exposed for 7 days, and developed with Kodak D19 for 3 min at 20° C. After staining with hematoxylin and eosin, slides were analyzed with a Nikon microscope using bright and dark field optics.
This range of concentrations was based on previous studies (see, for example, Lu et al., Development 124, 1643-1651 (1997)). Antagonist solutions were prepared in DMSO and used under yellow light conditions; control beads were soaked in DMSO alone. Beads were then dipped very briefly in phenol red-containing saline (HBSS) so that they were more readily visible during implantation.
Antagonist-containing or control beads were implanted in the wing bud of stage 21-22 (Day 3-3.5) or stage 27-28 (Day 5.5) chick embryos (Hamburger and Hamilton, J. Morphol. 88, 49-92 (1951)); contralateral wing bud served as control. A small window was opened in the egg shell and a small incision was made on the antero-dorsal proximal portion of the bud. One bead or several beads were then placed in the vicinity of the prospective humerus as specified below, and eggs were sealed and returned to the incubator. On the day of analysis, embryos were sacrificed by decapitation, and control and operated wings were examined by microscopy, using a Nikon SMZ-U dissecting photomicroscope, and humerus length was measured micrometrically. Because length of control humeri varied slightly from embryo to embryo, possibly reflecting slight differences in age, humeri were considered affected by antagonist treatment only if their length was shortened at least 25% over control value. Companion control and antagonist-treated limbs were processed for histology and in situ hybridization using tissue sections.
Having shown that RAR gene expression changes during chondrocyte maturation and that the cartilaginous elements as well as their surrounding perichondrial tissues contain endogenous retinoids, experiments were carried out to determine what roles the RARs and their ligands may play during chondrocyte maturation and skeletogenesis (see Example I, Antagonist Treatment). To approach this question, a bead containing retinoid antagonists was implanted in the vicinity of the prospective humeral mesenchymal condensation in stage 21-22 (Day 3-3.5) chick embryos and determined whether humerus development had been impaired by Day 10 in vivo.

[6] = test system: cephalic core sternal chondrocytes; assay: Cultured cephalic core sternal chondrocytes, alkaline phosphatase and type X collagen gene expression; type: cell-based, chick
Description: (§1) Cell populations rich in prehypertrophic and early hypertrophic chondrocytes were isolated from the cephalic core region of Day 17-18 chick embryo sterna, while immature chondrocytes were isolated from the caudal sternal region (Gibson and Flint, J. Cell Biol. 101, 277-284 (1985); Pacifici et al., Exp. Cell Res. 195, 38-46 (1991); Iwamoto et al., Exp. Cell Res. 207, 413-420 (1993b)). The dissected cephalic and caudal tissues were incubated for 1 hr at 37° C. in saline containing 0.1% type 1-S collagenase (Sigma Chemical Co., St. Louis, Mo.); the cells released after this incubation were discarded as they consisted mainly of perichondrial and blood cells. The remaining tissue was incubated in a fresh mixture of 0.25% trypsin and 0.1% collagenase for 3 hr at which point it was completely digested. The freshly isolated chondrocytes were plated at a density of 2×10^5 cells/well in 12-well plates, 1×10^6 cells/60 mm dish or 3×10^6 cells/100 mm dish. The cephalic core chondrocytes were grown continuously, without subculturing, for 2 to 3 weeks in monolayer. During the first 2 days, cultures received 4 U/ml of testicular hyaluronidase to minimize cell detachment (Leboy et al., J. Biol. Chem. 264, 17281-17286 (1989)), and cultures became confluent by 2 weeks. The caudal immature chondrocytes were first grown for 5 days at which point floating immature chondrocytes were separated from attached contaminating fibroblastic cells. The floating cells were trypsinized and replated in secondary cultures in the presence of hyaluronidase to increase cell attachment. Cultures were fed every other day with Dulbecco's modified high-glucose Eagle's medium (GIBCO BRL, Gaithersburg, Md.) containing 10% defined fetal calf serum (Hyclone, Logan, Utah), 2 mM L-glutamine, and 50 U/ml penicillin and streptomycin (Pacifici et al., Exp. Cell Res. 195, 38-46 (1991)). When indicated, cultures were treated with all-trans-RA (Sigma) or combinations of all-trans-RA and Ro 41-5253. Stock solutions of these retinoids were prepared in DMSO and were diluted into working solutions in 95% ethanol; control dishes received an equivalent amount of vehicle without retinoids. To analyze mineralization, cephalic sternal control and retinoid-treated cultures were supplemented with 3 mM β-glycerophosphate to serve as a phosphate source. During these various regimens, medium was changed daily. To localize calcium deposits, the cell layers were stained with 0.5% alizarin red S solution, pH 4.0, for 5 min at room temperature. In experiments in which cultures were treated for 2, 4 or 6 days, retinoid treatments were initiated so that all cultures (including control cultures) were harvested simultaneously. […]

[7] = test system: cephalic core sternal chondrocytes; assay: Mineralization of cultured cephalic core sternal chondrocytes, alizarin red staining; type: cell-based, chick; conditions: 6 days
Description: as §1, with “41-5253.” for “41-5253. Stock solutions of these retinoids were prepared in DMSO and were diluted into working solutions in 95% ethanol; control dishes received an equivalent amount of vehicle without retinoids. To analyze mineralization, cephalic sternal control and retinoid-treated cultures were supplemented with 3 mM β-glycerophosphate to serve as a phosphate source. During these various regimens, medium was changed daily. To localize calcium deposits, the cell layers were stained with 0.5% alizarin red S solution, pH 4.0, for 5 min at room temperature. In experiments in which cultures were treated for 2, 4 or 6 days, retinoid treatments were initiated so that all cultures (including control cultures) were harvested simultaneously.”

[8] = test system: caudal sternal chondrocytes; assay: Cultured immature caudal sternal chondrocytes, Northern blot of type X collagen; type: cell-based, chick
Description: as §1, with “41-5253.” for “41-5253. Stock solutions of these retinoids were prepared in DMSO and were diluted into working solutions in 95% ethanol; control dishes received an equivalent amount of vehicle without retinoids. To analyze mineralization, cephalic sternal control and retinoid-treated cultures were supplemented with 3 mM β-glycerophosphate to serve as a phosphate source. During these various regimens, medium was changed daily. To localize calcium deposits, the cell layers were stained with 0.5% alizarin red S solution, pH 4.0, for 5 min at room temperature. In experiments in which cultures were treated for 2, 4 or 6 days, retinoid treatments were initiated so that all cultures (including control cultures) were harvested simultaneously.”

[9] = test system: RARE/β-galactosidase reporter construct in F9 teratocarcinoma cell line; conditions: cited from earlier work
[10] = beads implanted Day 5.5, examined Day 8.5

SMILES: CC1=C(/C=C/C(C)=C\C=C\C(C)=C\C(=O)O)C(C)(C)CCC1 [9-cis-RA]
efficiency of stimulating transcription, fold lower than all-trans-RA ([1]; F9 reporter cells, unpublished observations): 10 fold

fold lower IC50 for RARγ compared to Ro 41-5253 [4]: ~500 fold
SMILES: Cc1ccc(C2=CCC(C)(C)c3ccc(C#Cc4ccc(C(=O)O)cc4)cc32)cc1 [AGN 109]
IC50 [2]: 5 nM
antagonism across RAR isotypes (selectivity in words) [3]: inhibits equally well RARa, β and γ
embryos with inhibited humerus development ([5]; 3-4 beads implanted Day 5.5 (stage 28), examined Day 8.5): 6/7
chondrocyte maturation and endochondral ossification in treated humerus (histology, in situ hybridization) ([5]; bead implanted at early stage, Day 10 humeri): chondrocyte maturation and long bone development are interrupted
concentration required for high frequency of humeral defects, relative to Ro 41-5253 ([5]; bead implanted stage 21-22, Day 10): much lower concentrations
hypertrophy and RARγ / type X collagen transcripts in treated humeri [5, 10]: had not advanced to the hypertrophic stage and lacked transcripts encoding RARγ and type X collagen
type II collagen expression in treated humeri (cell viability and differentiated functions) [5, 10]: very strong expression of type II collagen
delay of humerus development (reversibility) ([5]; beads implanted stage 28 (Day 5.5), examined Day 14): about 5 days
inhibition of humerus development ([5]; single bead implanted Day 5.5 (stage 28), examined Day 8.5 (5/5)): not very effective

alkaline phosphatase and type X collagen gene expression, antagonist alone ([6]; antagonist alone): no major effects
effect on all-trans-RA responses of alkaline phosphatase and type X collagen genes ([6]; co-treatment with 50 nM all-trans-RA, Ro 41-5253 at 500 nM): counteracted
SMILES: CCCCCCCOc1cc2c(cc1/C(C)=C/c1ccc(C(=O)O)cc1)C(C)(C)CCS2(=O)=O [Ro 41-5253]
IC50 [2]: 3300 nM
antagonism across RAR isotypes (selectivity in words) [3]: antagonistic effects on all RAR isoforms but preferentially on RARa
humerus shortening versus control contralateral humerus ([5]; bead implanted stage 21-22, Day 10 embryos): about 50%
mineralization on co-treatment with all-trans-RA ([7]; 500 nM with 25 or 50 nM all-trans-RA): almost no mineralization
mineralization, antagonist alone ([7]; antagonist alone): had no effects
type X collagen transcripts, antagonist alone ([8]; antagonist alone): did not have major effects
effect on all-trans-RA-induced increase in type X collagen transcripts ([8]; co-treatment 500 nM with 50 nM all-trans-RA): significantly, though not totally, blocked

alkaline phosphatase gene expression ([6]; 50 nM): increased dramatically
type X collagen expression ([6]; 50 nM, 6 days of treatment): essentially eliminated
SMILES: CC1=C(/C=C/C(C)=C/C=C/C(C)=C/C(=O)O)C(C)(C)CCC1 [all-trans-RA]
lowest exogenous concentration to which reporter cells are very sensitive (high expression of β-gal) [9]: 10 pM
β-galactosidase reporter response (histochemical) ([1]; 3 nM, 24 hr, positive control): positive
mineral deposition (alizarin red) ([7]; 25 or 50 nM, with β-glycerophosphate): abundant alizarin red-stainable mineral
type X collagen transcripts ([8]; 50 nM, 2, 4 or 6 days): marked time-dependent increase
